# Reference: ChEMBL document CHEMBL3882724 (2013)
# Target: T1, CYP21 (steroid 21-hydroxylase) (Homo sapiens, UniProt P08686)
# T1 sequence (P08686 whole entry): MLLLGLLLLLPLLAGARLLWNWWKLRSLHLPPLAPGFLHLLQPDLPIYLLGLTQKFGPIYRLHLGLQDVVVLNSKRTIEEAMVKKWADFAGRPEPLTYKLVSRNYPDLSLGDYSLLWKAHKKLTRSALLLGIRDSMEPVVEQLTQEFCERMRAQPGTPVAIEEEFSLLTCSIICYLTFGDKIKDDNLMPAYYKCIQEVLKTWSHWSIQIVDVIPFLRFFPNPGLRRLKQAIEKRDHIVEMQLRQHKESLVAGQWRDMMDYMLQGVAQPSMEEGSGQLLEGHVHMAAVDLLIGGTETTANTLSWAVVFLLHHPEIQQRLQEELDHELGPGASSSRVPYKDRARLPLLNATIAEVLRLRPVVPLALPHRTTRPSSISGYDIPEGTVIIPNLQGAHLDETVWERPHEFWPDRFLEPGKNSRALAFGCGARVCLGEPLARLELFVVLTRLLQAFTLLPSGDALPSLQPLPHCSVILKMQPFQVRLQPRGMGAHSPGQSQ
# Experiment: Inhibition of human CYP21 transfected in HEK293 cells assessed as decrease in conversion of progesterone to 11-deoxycorticosterone preincubated for 5 hrs followed by progesterone addition measured after 20 hrs by ELISA
# Type: cell-based
# Set-up: concentration or dose not given beside the values
# Conditions: HEK293 cells transfected with human CYP21, probe progesterone
row,Structure (SMILES),inhibition at 20 h [%]
1,C[C@]12CC[C@@H](NC(=O)c3nccs3)CC1=CC[C@@H]1[C@@H]2CC[C@]2(C)C(n3ccnc3)=CC[C@@H]12,10 to 50
2,CC(=O)Nc1cncc(C2=CC[C@H]3[C@@H]4CC=C5C[C@@H](O)CC[C@]5(C)[C@H]4CC[C@]23C)c1,< 10
3,C[C@]1(O)CC[C@@]2(C)C(=CC[C@@H]3[C@@H]2CC[C@]2(C)C(c4cncc(F)c4)=CC[C@@H]32)C1,10 to 50
4,CC1C[C@@]2(C)C(CC[C@@H]3[C@@H]2CC[C@]2(C)C(c4cccnc4)=CC[C@@H]32)C(C)C1O (stereo partly specified),10 to 50
5,C[C@]12CC[C@H](O)CC1=CC[C@@H]1[C@@H]2CC[C@]2(C)C(c3cncc(NS(C)(=O)=O)c3)=CC[C@@H]12,< 10
6,C[C@]12CCC(=O)C=C1CC[C@@H]1[C@@H]2CC[C@]2(C)C(c3cncc(C(F)F)c3)=CC[C@@H]12,10 to 50
7,C[C@]12CC[C@@H](NS(=O)(=O)C3CC3)CC1=CC[C@@H]1[C@@H]2CC[C@]2(C)C(c3cccnc3)=CC[C@@H]12,10 to 50
8,CCNC(=O)N[C@@H]1CC[C@@]2(C)C(=CC[C@@H]3[C@@H]2CC[C@]2(C)C(c4cncc(F)c4)=CC[C@@H]32)C1,10 to 50
9,CC1C[C@@H]2[C@H](CC[C@]3(C)C(c4cccnc4)=CC[C@@H]23)[C@@]2(C)C=C/C(=N\O)C=C12 (stereo partly specified),10 to 50
10,COC1CC[C@@]2(C)C(=CC[C@@H]3[C@@H]2CC[C@]2(C)C(c4cncc(C)c4)=CC[C@@H]32)C1 (stereo partly specified),< 10
11,C[C@]12CC[C@@H](NC(=O)c3nccs3)CC1=CC[C@@H]1[C@@H]2CC[C@]2(C)C(c3cccnc3)=CC[C@@H]12,10 to 50
12,C[C@H]1C2CC[C@@H]3[C@H](CC[C@]4(C)C(c5cncc(C(F)F)c5)=CC[C@@H]34)[C@@]2(C)CC[C@@H]1O (stereo partly specified),10 to 50
13,C[C@]12CC[C@H]3[C@@H](CC(Nc4nccs4)C45CC4CC[C@]35C)[C@@H]1CC=C2c1cccnc1 (stereo partly specified),10 to 50
14,CC1C[C@@H]2[C@H](CC[C@]3(C)C(c4cncc(C(F)F)c4)=CC[C@@H]23)[C@@]2(C)C=CC(=O)C=C12 (stereo partly specified),10 to 50
15,C[C@]12CCC(O)(CCCO)CC1CC[C@@H]1[C@@H]2CC[C@]2(C)C(c3cccnc3)=CC[C@@H]12 (stereo partly specified),10 to 50
16,C[C@@]1(O)CC[C@@]2(C)C(CC[C@@H]3[C@@H]2CC[C@]2(C)C(c4cncc(Cl)c4)=CC[C@@H]32)C1 (stereo partly specified),10 to 50
17,C[C@]12CC[C@H]3[C@@H](CCC4=CC(=O)CC[C@@]43C)C1=CC=C2c1cncc(Cl)c1,10 to 50
18,CC1(C)C2=CC[C@@H]3[C@H](CC[C@]4(C)C(c5cccnc5)=CC[C@@H]34)[C@@]2(C)CC/C1=N\O,< 10
19,C[C@@]1(O)CC[C@@]2(C)C(CC[C@@H]3[C@@H]2CC[C@]2(C)C(c4cccnc4)=CC[C@@H]32)C1 (stereo partly specified),< 10
20,CC1C[C@@H]2[C@H](CC[C@]3(C)C(c4cccnc4)=CC[C@@H]23)[C@@]2(C)CC[C@@](C)(O)CC12 (stereo partly specified),10 to 50

row,Structure (SMILES),inhibition at 20 h [%]
1,C[C@@H]1C2CC[C@@H]3[C@H](CC[C@]4(C)C(c5cncc(C(F)F)c5)=CC[C@@H]34)[C@@]2(C)CC[C@H]1O (stereo partly specified),< 10
2,C[C@]12CC[C@H]3[C@@H](CCC45CC4NC(=O)CC[C@]35C)[C@@H]1CC=C2c1cccnc1 (stereo partly specified),< 10
3,C[C@]12CCC(=O)C=C1C(C1CC1)C[C@@H]1[C@@H]2CC[C@]2(C)C(c3cccnc3)=CC[C@@H]12 (stereo partly specified),< 10
4,C[C@]1(O)CC[C@@]2(C)C(=CC[C@@H]3[C@@H]2CC[C@]2(C)C(c4cccnc4)=CC[C@@H]32)C1,≥ 50
5,CC1C[C@H]2[C@@H]3CC=C(c4cncc(F)c4)[C@@]3(C)CC[C@@H]2[C@@]2(C)CC[C@H](O)CC12O (stereo partly specified),10 to 50
6,C[C@]12CC(F)(F)CC1CC[C@@H]1[C@@H]2CC[C@]2(C)C(c3cccnc3)=CC[C@@H]12 (stereo partly specified),10 to 50
7,CC1CC2[C@H](CC[C@]3(C)C(c4cccnc4)=CC[C@@H]23)[C@@]2(C)CCC(C)(O)C=C12 (stereo partly specified),10 to 50
8,Cc1cc(C2=CC[C@H]3[C@@H]4CC=C5C[C@@H](O)CC[C@]5(C)[C@H]4CC[C@]23C)cnc1F,< 10
9,CC1C(O)CC[C@@]2(C)C1CC[C@@H]1[C@@H]2CC[C@]2(C)C(c3cncc(F)c3)=CC[C@@H]12 (stereo partly specified),< 10
10,CCNC(=S)N[C@@H]1CC[C@@]2(C)C(=CC[C@@H]3[C@@H]2CC[C@]2(C)C(c4cccnc4)=CC[C@@H]32)C1,10 to 50
11,CN1C(=O)CC[C@@]2(C)C1=CC[C@@H]1[C@@H]2CC[C@]2(C)C(c3cnccc3F)=CC[C@@H]12,10 to 50
12,CN1C(=O)CC[C@@]2(C)C1=CC[C@@H]1[C@@H]2CC[C@]2(C)C(c3cncc(C(F)F)c3)=CC[C@@H]12,< 10
13,CC1=C2CC[C@@H]3[C@H](CC[C@]4(C)C(c5cccnc5)=CC[C@@H]34)[C@@]2(C)CC/C1=N\O,10 to 50
14,C[C@]12CC[C@H]3[C@@H](CCC45CC4C(O)CC[C@]35C)[C@@H]1CC=C2c1cncc(F)c1 (stereo partly specified),10 to 50
15,Cc1cnc(F)c(C2=CC[C@H]3[C@@H]4CCC5=CC(=O)CC[C@]5(C)[C@H]4CC[C@]23C)c1,10 to 50
16,CC1C[C@H]2C3=CC=C(c4cncc(C(F)F)c4)[C@@]3(C)CC[C@@H]2[C@@]2(C)CCC(=O)C=C12 (stereo partly specified),< 10
17,C[C@]12CC[C@H]3[C@@H](CC(c4ccccc4)C4=CC(=O)CC[C@@]43C)C1=CC=C2c1cccnc1 (stereo partly specified),10 to 50
18,C[C@]12CC[C@H](O)CC1=CC[C@@H]1[C@@H]2CC[C@]2(C)C(c3cncc(C#N)c3)=CC[C@@H]12,10 to 50
19,C[C@]12CCC3(CCC(=O)O3)CC1CC[C@@H]1[C@@H]2CC[C@]2(C)C(c3cccnc3)=CC[C@@H]12 (stereo partly specified),< 10

# The next lines start with the values.
row,inhibition at 20 h [%],Structure (SMILES)
1,10 to 50,C[C@]12CCNC(=O)CC1CC[C@@H]1[C@@H]2CC[C@]2(C)C(c3cncc(F)c3)=CC[C@@H]12 (stereo partly specified)
2,10 to 50,Cc1ccncc1C1=CC[C@H]2[C@@H]3CC[C@H]4CNC(=O)CC[C@]4(C)[C@H]3CC[C@]12C
3,10 to 50,CCc1ccncc1C1=CC=C2[C@@H]3CCC4CNC(=O)CC[C@]4(C)[C@H]3CC[C@]12C (stereo partly specified)
4,10 to 50,C[C@]12CC[C@H]3[C@@H](CC=C4C[C@@H](OC(=O)Nc5cccnc5)CC[C@@]43C)C1=CC=C2c1cccnc1
5,≥ 50,CCNC(=O)N[C@@H]1CC[C@@]2(C)C(CC[C@@H]3[C@@H]2CC[C@]2(C)C(n4ccnc4)=CC[C@@H]32)C1 (stereo partly specified)
6,10 to 50,CCC(=O)O[C@H]1CC[C@@]2(C)C(=CC[C@H]3C4=CC=C(c5cccnc5)[C@@]4(C)CC[C@@H]32)C1
7,10 to 50,COc1cncc(C2=CC[C@H]3[C@@H]4CC[C@H]5C[C@@H](OC)CC[C@]5(C)[C@H]4CC[C@]23C)c1
8,10 to 50,CC(C)(C)C(=O)O[C@H]1CC[C@@]2(C)C(=CC[C@H]3C4=CC=C(c5cccnc5)[C@@]4(C)CC[C@@H]32)C1
9,≥ 50,C[C@]12CC[C@H]3[C@@H](CC4OC45C[C@@H](O)CC[C@]35C)C1=CC=C2c1cccnc1 (stereo partly specified)
10,10 to 50,CNC1CC[C@@]2(C)[C@@H](CC[C@@H]3[C@@H]2CC[C@]2(C)C(c4cccnc4)=CC[C@@H]32)C1 (stereo partly specified)
11,10 to 50,C[C@]12CC[C@@H](N=[N+]=[N-])CC1CC[C@@H]1[C@@H]2CC[C@]2(C)C(c3cccnc3)=CC[C@@H]12 (stereo partly specified)
12,10 to 50,CCc1ccncc1C1=CC=C2[C@@H]3CCC4C[C@@H](OC(C)=O)CC[C@]4(C)[C@H]3CC[C@]12C (stereo partly specified)
13,10 to 50,C[C@]12CC[C@H]3[C@@H](CC=C4C=CCC[C@@]43C)C1=CC=C2c1cccnc1
14,10 to 50,CCc1ccncc1C1=CC=C2[C@@H]3CCC4CC(=O)CC[C@]4(C)[C@H]3CC[C@]12C (stereo partly specified)
15,10 to 50,CN1CCC(C(=O)O[C@H]2CC[C@@]3(C)C(=CC[C@H]4C5=CC=C(c6cccnc6)[C@@]5(C)CC[C@@H]43)C2)CC1
16,< 10,CCNC(=O)O[C@H]1CC[C@@]2(C)C(=CC[C@H]3C4=CC=C(c5cccnc5)[C@@]4(C)CC[C@@H]32)C1
17,10 to 50,CCc1ccncc1C1=CC[C@H]2[C@@H]3CC[C@H]4CC(=O)NCC[C@]4(C)[C@H]3CC[C@]12C
18,10 to 50,C[C@]12CC[C@H]3[C@@H](CC=C4C[C@@H](O)CC[C@@]43C)C1=CC=C2c1cncc(Cl)c1
19,10 to 50,Cc1ccncc1C(=O)O[C@H]1CC[C@@]2(C)C(=CC[C@H]3C4=CC=C(c5cccnc5)[C@@]4(C)CC[C@@H]32)C1
20,10 to 50,Cc1ccncc1C1=CC=C2[C@@H]3CC[C@H]4CC(=O)NCC[C@]4(C)[C@H]3CC[C@]12C
21,10 to 50,Cc1ccncc1C1=CC=C2C3CCC4C[C@@H](O)CC[C@]4(C)C3CC[C@]12C (stereo partly specified)
22,10 to 50,C[C@]12CC[C@H](NC(=O)C(F)(F)F)CC1CC[C@@H]1[C@@H]2CC[C@]2(C)C(c3cccnc3)=CC[C@@H]12 (stereo partly specified)
